Measurements from patent US7335644B2, “Anti-hypertensive molecules and process for preparation thereof” (Council of Scientific and Industrial Research, priority 2003, dated 2008).

System: arterial blood pressure of hypertensive Wistar rats
Details: 1 mg/kg

## C[C@H](CS)C(=O)N1CCC[C@H]1C(=O)O [captopril]
Reference inhibitor
  fall of blood pressure: 60 mm Hg
  time during which still quite effective in blocking angiotensin-converting enzyme: ≥ 180 min
Reference inhibitor (not shown)
  time for blood pressure to return to baseline: 240 min
